{"source": "patent US20240299353A1", "about": "“COMPOSITIONS AND METHODS FOR TREATING […] 5-MEO-DMT” (Alvarius Pharmaceuticals Ltd., priority 2021, published 2024)", "type_in_all_cases": "in vivo", "key": {"[1]": {"system": "rats", "experiment": "Elevated plus maze", "description": "(§1) In this instance the animals were 9 weeks old at the initiation of drug exposures and we selected just the high (20 mg/kg) dose of 5-MeO-DMT from the molecular study. […] Due to the number of behavioral paradigms to be completed by each animal we divided the study into two cohorts staggered by two weeks with 8 animals coming from each cohort to make up the 16 animals for each treatment group. 23 hours after 5-MeO-DMT administration the animals were introduced to the open field arena where they were allowed to freely explore the area for 5 mins. Following the open field test (OFT) animals were returned to their home cage for 2 hours before beginning either the elevated plus maze (EPM) or pre-pulse inhibition (PPI) testing. 24 hours after completing the OFT animals were returned to the chamber for the first session in novel object (NO1) testing. The animals were returned to their home cage for 2 hours before beginning the EPM or PPI test. 24 hours after NO1 the animals returned to the open field chamber for the second session in novel object (N02) testing. After completing N02 animals were returned to their home cage for 2 hours before they underwent the forced swim test (FST) pre-test. 24 hours later the animals were returned to the FS cylinders for the FST. Upon completion of the FST all animals were euthanized. A timeline of this experimental cohort is described in FIG. 8A.\n(§2) The experiment was conducted as described for cohort 1 for the first 13 days of injections. There are a number of notable differences in experimental procedures between the two cohorts of animals to be highlighted. […] Finally, the dose of 5-MeO-DMT was reduced to 10 mg/kg. The order and timing of all the behavioral paradigms were kept constant between the cohorts. A timeline of this experimental cohort is described in FIG. 8B. Additionally, 5-MeO-DMT administrations were staggered so animals could be observed for the duration of acute drug effects and to ensure recovery prior to the next animal being injected. The typical symptoms of psychedelic drug administration outlined above were reproduced in all animals administered 5-MeO-DMT.\nOur EPM apparatus consisted of a plus-shaped white plastic platform positioned 100 cm above the ground. Two opposite arms of the maze were bordered by vertical walls measuring 20 cm high, with the other two arms open to the environment with no edges. Animals were placed into the centre of the maze facing a closed arm and allowed to explore freely for 5 min. At the conclusion of the test, rats were returned to their home cages and the apparatus was cleaned with 2% distal. Animal movement was recorded during the trial using Any-Maze software. Time spent in open or closed arms, number of entries into open arms and number of grooming behaviors were all quantified (FIG. 10A-10B). Behavioral assessment was conducted in a quiet room under low-level red-light illumination. Behaviors were scored by two observers blind to experimental conditions."}, "[2]": {"system": "rats", "experiment": "Open field test", "settings": "for duration of rearing behaviour, main effect: 5-MeO-DMT p=0.0047, cocaine p=0.0380; for duration of time spent in the centre of the arena: any treatment group; for number of rearings, main effect: cocaine p=0.0202, 5-MeO-DMT p=0.0020; for duration of time spent in the centre of the field: any of treatments", "description": "as §1, §2\nThe open field environment provides a fast and relatively easy test that determines a variety of behavioral information ranging from general ambulatory ability to data regarding the emotionality of the subject animal. The technique enables investigation of different pharmacological compounds for anxiolytic or anxiogenic effects (Seibenhener, M. L. & M. C. Wooten (2015) Use of the Open Field Maze to Measure Locomotor and Anxiety-like Behavior in Mice. Journal of Visualized Experiments: JoVE, 52434). Rodents show distinct aversions to large, brightly lit, open and unknown environments (Choleris, E., A. W. Thomas, M. Kavaliers & F. S. Prato (2001) A detailed ethological analysis of the mouse open field test: effects of diazepam, chlordiazepoxide and an extremely low frequency pulsed magnetic field. Neuroscience & Biobehavioral Reviews, 25, 235-260). These features are incorporated in the open field test and form the basis of its use in behavioural paradigm testing. There are various parameters that can be quantified from the open field, but the primary parameter of interest is thigmotaxis, the tendency of a subject to remain close to walls as determined by measuring time spent in inner zones versus outer zones of the maze (Simon, P., R. Dupuis & J. Costentin (1994) Thigmotaxis as an index of anxiety in mice. Influence of dopaminergic transmissions. Behavioural brain research, 61, 59-64). […] For the OFT, animals were placed in the open field arena and allowed to freely explore for 5 minutes. The session was recorded and analysed by EthoVision software which quantified the total distance covered. The number of entries into and total time spent in the centre of the arena were scored by two observers blind to experimental conditions (FIG. 9)."}, "[3]": {"system": "rats", "experiment": "Pre-pulse inhibition of startle", "settings": "for treatment effects on PPI: cohort 1 (20 mg/kg 5-MeO-DMT)", "description": "as §1, §2\nThe PPI protocol employed was based on a procedure previously described by Geyer and colleagues (Geyer, M. A., K. Krebs-Thomson, D. L. Braff & N. R. Swerdlow (2001) Pharmacological studies of prepulse inhibition models of sensorimotor gating deficits in schizophrenia: a decade in review. Psychopharmnacology, 156, 117-154). Each rat was restrained in an appropriately sized cylindrical holder that was placed on a movement-sensitive platform and maintained in a soundproof chamber. The animal was allowed to habituate to a white noise background of 70 dB for 5 mins before receiving 5 20 ms startle trials of 120 dB separated by randomized intervals of 10-20 s. Immediately thereafter, each rat received 5 separate presentations with one of the pre-pulse stimuli of 72, 76, 80, or 84 dB followed 100 ms later by the 120 dB acoustic startle stimulus. Each trial was separated by a time interval of 10-20 s. The 4 pre-pulse stimuli were delivered in a randomised manner and included periods in which there was no pre-pulse or startle stimulus. The session terminated with five further startle trials. Randomisation of the sound signals delivered and quantification of the startle movements were recorded from the movement-sensitive platform. Signals were integrated using the software supplied by the manufacturers of equipment hardware (MED-Associates Inc., St. Albans, VT, USA)."}, "[4]": {"settings": "cohort 1, either treatment or the combination"}, "[5]": {"settings": "cohort 2, either treatment or their combination"}, "[6]": {"settings": "cohort 1, cocaine+20 mg/kg 5-MeO-DMT"}}}
{"smiles": "COc1ccc2[nH]cc(CCN(C)C)c2c1", "note": "[5-MeO-DMT, 5-methoxy-N,N-dimethyltryptamine]", "values": [{"measurement": "secondary anxiety measures, stretch-attenuated posture (SAP) or head dipping", "setting": "[1]; cohort 1", "result": "no treatment effects"}, {"measurement": "total distance travelled, main effect", "setting": "[1]; cohort 1, 5-MeO-DMT p<0.0001", "result": "significant effect"}, {"measurement": "total distance travelled", "setting": "[1]; cohort 1, cocaine+20 mg/kg 5-MeO-DMT relative to cocaine alone", "result": "reduction in the total distance travelled"}, {"measurement": "duration of time spent in the open arms", "setting": "[1]; [4]", "result": "unaffected by either treatment or the combination"}, {"measurement": "number of entries into the open arms", "setting": "[1]; [4]", "result": "unaffected by either treatment or the combination"}, {"measurement": "duration of time spent on the open arms", "setting": "[1]; cohort 2, cocaine and 5-MeO-DMT (10 mg/kg) combination relative to control and 5-MeO-DMT alone", "result": "significantly increased"}, {"measurement": "total distance travelled", "setting": "[1]; [5]", "result": "no effect of either treatment or their combination"}, {"measurement": "number of entries into the centre of the open field arena", "setting": "[2]; cohort 1, 20 mg/kg 5-MeO-DMT, p=0.0139, no post hoc differences", "result": "significantly affected"}, {"measurement": "duration of rearing behaviour, main effect", "setting": "[2]; cohort 1", "result": "affected"}, {"measurement": "duration of time spent in the centre of the arena", "setting": "[2]; cohort 1", "result": "not affected by any treatment group"}, {"measurement": "number of rearings, main effect", "setting": "[2]; cohort 1", "result": "significantly affected"}, {"measurement": "duration of rearing behaviour", "setting": "[2]; [6]", "result": "significant decrease in the combination group relative to control"}, {"measurement": "number of rearings", "setting": "[2]; [6]", "result": "significantly decreased the number of rearings relative to the control and cocaine-treated animals"}, {"measurement": "total distance travelled", "setting": "[2]; cohort 1, cocaine+20 mg/kg 5-MeO-DMT relative to cocaine+vehicle", "result": "reduction in the total distance travelled"}, {"measurement": "total distance travelled", "setting": "[2]; cohort 1, saline+20 mg/kg 5-MeO-DMT relative to saline+vehicle", "result": "reduction in the total distance travelled"}, {"measurement": "number of rearings", "setting": "[2]; cohort 2, 10 mg/kg 5-MeO-DMT, p=0.0031, no post hoc differences", "result": "significant effect"}, {"measurement": "duration of rearings", "setting": "[2]; cohort 2, 10 mg/kg 5-MeO-DMT, p=0.0837", "result": "not the duration of rearings"}, {"measurement": "duration of time spent in the centre of the field", "setting": "[2]; cohort 2", "result": "not changed by any of treatments"}, {"measurement": "total distance travelled", "setting": "[2]; cohort 2, saline+10 mg/kg 5-MeO-DMT relative to saline+vehicle", "result": "specific reduction in the total distance travelled"}, {"measurement": "treatment effects on PPI", "setting": "[3]", "result": "no treatment effects on PPI"}, {"measurement": "inhibition of the startle response at 80 dB or 84 dB relative to the 72 dB pre-pulse", "setting": "[3]; cohort 1, 5-Meo-treated animals", "result": "significant increase in the inhibition of the startle response"}, {"measurement": "percentage inhibition of startle with change in intensity of the pre-pulse", "setting": "[3]; cohort 1, cocaine+20 mg/kg 5-MeO-DMT combination", "result": "no change in percentage inhibition of startle"}, {"measurement": "PPI at the 80 dB pre-pulse", "setting": "[3]; cohort 1, combination group relative to control and 5-MeO-DMT alone", "result": "significant attenuation of PPI"}, {"measurement": "treatment effect on PPI", "setting": "[3]; cohort 2 (10 mg/kg 5-MeO-DMT)", "result": "no treatment effect on PPI"}, {"measurement": "PPI at 84 dB relative to 72 dB pre-pulse", "setting": "[3]; cohort 2, cocaine+10 mg/kg 5-MeO-DMT", "result": "significant increase in PPI"}]}
{"smiles": "COC(=O)[C@H]1[C@@H](OC(=O)c2ccccc2)C[C@@H]2CC[C@H]1N2C.Cl", "note": "[cocaine, cocaine hydrochloride, reference compound]", "values": [{"measurement": "secondary anxiety measures, stretch-attenuated posture (SAP) or head dipping", "setting": "[1]; cohort 1", "result": "no treatment effects"}, {"measurement": "duration of time spent in the open arms", "setting": "[1]; [4]", "result": "unaffected by either treatment or the combination"}, {"measurement": "number of entries into the open arms", "setting": "[1]; [4]", "result": "unaffected by either treatment or the combination"}, {"measurement": "duration of time spent in the open arms", "setting": "[1]; cohort 2, cocaine p=0.0031", "result": "significantly affected"}, {"measurement": "head dipping", "setting": "[1]; cohort 2, cocaine p=0.0054, no post hoc differences", "result": "significantly affected"}, {"measurement": "number of entries into the open arms", "setting": "[1]; cohort 2, cocaine p=0.0055", "result": "significantly affected"}, {"measurement": "total distance travelled", "setting": "[1]; [5]", "result": "no effect of either treatment or their combination"}, {"measurement": "duration of rearing behaviour, main effect", "setting": "[2]; cohort 1", "result": "affected"}, {"measurement": "duration of time spent in the centre of the arena", "setting": "[2]; cohort 1", "result": "not affected by any treatment group"}, {"measurement": "number of rearings, main effect", "setting": "[2]; cohort 1", "result": "significantly affected"}, {"measurement": "duration of time spent in the centre of the field", "setting": "[2]; cohort 2", "result": "not changed by any of treatments"}, {"measurement": "number of entries into the centre of the open field", "setting": "[2]; cohort 2, cocaine p=0.0448, no post hoc differences", "result": "significantly affected"}, {"measurement": "treatment effects on PPI", "setting": "[3]", "result": "no treatment effects on PPI"}, {"measurement": "percentage inhibition of startle with change in intensity of the pre-pulse", "setting": "[3]; cohort 1, cocaine alone", "result": "no change in percentage inhibition of startle"}]}
